Experimental data published in paper PMC12257413, “Discovery of a Novel sp^3‑Rich M1 Positive Allosteric Modulators (PAMs) Chemotype via Scaffold Hopping” (ACS Medicinal Chemistry Letters, 2025).
Substitutions are numbered along the chain they refer to.

How the values were obtained:
[1] = target: T1, human muscarinic receptor subtype 1 (M1) (Homo sapiens, UniProt P11229); assay: Calcium mobilization assay in hM1-CHO cells, PAM activity with EC20 acetylcholine; type: cell-based; settings: for EC50: read-out: hM1 pEC50 ± SEM (converted)
T1 sequence (P11229 1-460): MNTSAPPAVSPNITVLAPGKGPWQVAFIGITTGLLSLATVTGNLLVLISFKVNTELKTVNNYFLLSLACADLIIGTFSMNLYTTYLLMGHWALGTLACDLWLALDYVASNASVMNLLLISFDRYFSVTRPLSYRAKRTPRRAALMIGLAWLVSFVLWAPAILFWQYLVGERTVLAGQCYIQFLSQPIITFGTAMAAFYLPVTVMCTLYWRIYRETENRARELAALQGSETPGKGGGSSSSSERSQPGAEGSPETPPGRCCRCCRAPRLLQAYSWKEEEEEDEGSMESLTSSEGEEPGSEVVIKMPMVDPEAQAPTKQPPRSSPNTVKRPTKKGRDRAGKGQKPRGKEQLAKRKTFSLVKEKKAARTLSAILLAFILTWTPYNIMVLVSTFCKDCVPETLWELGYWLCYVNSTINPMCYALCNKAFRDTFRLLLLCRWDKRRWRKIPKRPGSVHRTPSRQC
Protocol: (§1) page 2: Procedures for Biological Experiments Calcium mobilization assays: To measure the functional activity of positive allosteric modulator (PAM) compounds in a cellular assay, human or rat muscarinic receptor subtype 1 (M1) was stably expressed in the Chinese hamster ovary (CHO) cells to evoke an increase in intracellular calcium to an EC20 concentration of acetylcholine (ACh) agonist. The stable M1-CHO cells were cultured in F12 medium containing 10% fetal bovine serum, 20 mM HEPES, 100 units/mL antibiotics/antimycotic, 0.5 mg/ml G418. All reagents used were from Life Technologies (Carlsbad, CA) unless otherwise noted. Briefly, the day before the assay, stable M1-CHO cells (15,000 cells/20 μL/well) were plated in black-walled, clear-bottomed, 384 well plates (Greiner Bio-One, Monroe, NC) in the culture medium without G418, and then incubated overnight at 37 °C in the presence of 5% CO2. The next day, calcium assay buffer (Hank’s balanced salt solution (HBSS), 20 mM HEPES, 2.5 mM Probenecid, 4.16 mM sodium bicarbonate (Sigma-Aldrich, St. Louis, MO) was prepared to dilute […] calcium indicator dye. […] curves in DMSO using the Bravo Liquid Handler (Agilent, Santa Clara, CA), transferred to a 384 well daughter plates using an Echo acoustic liquid handler (Beckman Coulter, Indianapolis, Indiana), and diluted in assay Buffer to a 2X final concentration. The agonist plates were prepared using acetylcholine (ACh, Sigma-Aldrich, St. Louis, MO) concentrations for the EC20 and ECMAX responses by diluting in assay buffer to a 5X final concentration. The 2X dye solution (2.3 µM) was prepared by mixing a 2.3 mM Fluo-4-AM stock in DMSO with 10% (w/v) pluronic acid F- 127 in a 1:1 ratio in assay buffer. Using a microplate washer (BioTek, Winooski, VT), cells were washed with assay buffer for 3 times to remove medium. After the final wash, 20 μL of assay buffer remained in the cell plates. Immediately, 20 μL of the 2X dye solution (final 1.15 µM) was added to each well of the cell plate using a Multidrop Combi dispenser (Thermo Fisher, Waltham, MA). After cells were incubated with the dye solutions for 45 min at 37 °C in the presence of 5% CO2, the dye solutions were removed and replaced with assay buffer using a microplate washer, leaving 20 μL of assay buffer in the cell plate. The compound, agonist, and cell plates were placed inside the Functional Drug Screening System uCell (FDSS uCell, Hamamatsu, Japan) to measure the calcium flux. The triple add protocol was used to measure Ca kinetics; Compound, ACh for EC20, and ACh for ECMAX adds in an order. Briefly, after establishment of a fluorescence baseline S2 page 3: for 2 seconds (excitation, 480 nm; emission, 530 nm), first add occurred by adding 20 µL of test compound to the cells, and the response was measured for 140 seconds. This is followed by second add; 10 µL (5X) of an EC20 concentration of ACh agonist was added to the cells, and the response of the cells was measured for 125 seconds. Immediately, the third add occurred by adding 12 ul assay buffer or 5X of an EC max concentration of ACh and the response of the cells was measured for 90 seconds. Assay buffer was added to the wells that incubated with compounds followed by EC20 concentration of ACh. Agonists containing ECmax concentration of ACh were added to the wells that incubated with DMSO and assay buffer from the 1st and 2nd adds to measure maximum Ca responses (ECmax). Calcium fluorescence was recorded as fold over basal fluorescence and raw data were normalized to the maximal response to ACh agonist. […]

[2] = target: T2, rat muscarinic receptor subtype 1 (M1) (Rattus norvegicus, UniProt P08482); assay: Calcium mobilization assay in rM1-CHO cells, PAM activity with EC20 acetylcholine; type: cell-based; settings: for EC50: read-out: rM1 pEC50 ± SEM (converted)
T2 construct: expressed in transfected cells
T2 sequence (P08482 1-460): T1 sequence (P11229 1-460) with A5V, T254S, P309S, R320K, A337G, I413V
Protocol: as §1

SMILES	hM1 %ACh Max ± SEM [1]	EC50 [1]	rM1 %ACh Max ± SEM [2]	EC50 [2]	hM1 pEC50 ± SEM [1]	rM1 pEC50 ± SEM [2]
Cn1cc(-c2ccc(Cc3cc(C(=O)NC4CC(F)C4)nn3C3CCCC3)cc2)cn1 (stereo not shown) [17o]	46 ± 1.1 %ACh Max	> 10 µM	50 ± 3.7 %ACh Max	> 10 µM	–	–
Cn1cc(-c2ccc(Cc3cc(C(=O)N[C@H]4CCOC[C@@H]4O)nn3Cc3ccccc3)cc2)cn1 [17f]	–	> 10 µM	57 ± 4.6 %ACh Max	> 10 µM	–	–
Cn1cc(-c2ccc(Cc3cc(C(=O)N[C@H]4CCC[C@@H]4O)nn3C3CCCC3)cc2)cn1 [17m]	76 ± 10 %ACh Max	2.14 µM	73 ± 5.3 %ACh Max	1.58 µM	–	–
Cn1cc(-c2ccc(Cc3cc(C(=O)N[C@H]4CCCCC[C@@H]4O)nn3-c3ccccc3)cc2)cn1 [17e]	72 ± 2.6 %ACh Max	4.57 µM	80 ± 3.2 %ACh Max	3.47 µM	–	–
Cn1cc(-c2ccc(Cc3cc(C(=O)N[C@H]4CC[C@@H]4O)nn3-c3ccccc3)cc2)cn1 [17d]	48 ± 7.4 %ACh Max	> 10 µM	51 ± 3.9 %ACh Max	> 10 µM	–	–
Cn1cc(-c2ccc(Cc3cc(C(=O)N[C@H]4CCOC[C@@H]4O)nn3-c3ccccc3)cc2)cn1 [17b]	74 ± 0.6 %ACh Max	2 µM	84 ± 4.6 %ACh Max	1.2 µM	–	–
Cn1cc(-c2ccc(Cc3cc(C(=O)N[C@H]4CCOC[C@@H]4O)nn3C3CCOC3)cc2)cn1 (stereo partly shown) [17j]	71 ± 4.1 %ACh Max	1.2 µM	75 ± 7.6 %ACh Max	0.562 µM	–	–
Cn1cc(-c2ccc(Cc3cc(C(=O)N[C@H]4CCCCC[C@@H]4O)nn3C3CCCC3)cc2)cn1 [17l]	79 ± 4.4 %ACh Max	0.661 µM	81 ± 3.8 %ACh Max	0.724 µM	–	–
Cn1cc(-c2ccc(Cc3cc(C(=O)NC4CC5(COC5)C4)nn3C3CCCC3)cc2)cn1 [17p]	78 ± 8.8 %ACh Max	2.95 µM	76 ± 4.2 %ACh Max	1.91 µM	–	–
Cn1cc(-c2ccc(Cc3cc(C(=O)N[C@@H]4CCOC[C@H]4F)nn3C3CCCC3)cc2)cn1 [17n]	67 ± 2.5 %ACh Max	6.61 µM	72 ± 3.8 %ACh Max	4.17 µM	–	–
Cn1cc(-c2ccc(Cc3cc(C(=O)N[C@H]4CCC[C@@H]4O)nn3-c3ccccc3)cc2)cn1 [17c]	58 ± 3.0 %ACh Max	> 10 µM	69 ± 4.3 %ACh Max	> 10 µM	–	–
Cn1cc(-c2ccc(Cc3cc(C(=O)N[C@H]4CCOC[C@@H]4O)nn3C3CCCCC3)cc2)cn1 [17h]	73 ± 3.1 %ACh Max	4.9 µM	80 ± 7.1 %ACh Max	1.48 µM	–	–
CNC(=O)c1ccc(Cc2cc(C(=O)N[C@H]3CCOC[C@@H]3O)nn2C2CCCC2)cc1 [compound 21]	–	1.26 µM	–	0.794 µM	–	–
Cn1cc(-c2ccc(Cc3cc(C(=O)N[C@H]4CCCC[C@@H]4O)nn3-c3ccccc3)cc2)cn1 [17a]	70 ± 1.5 %ACh Max	3.02 µM	80 ± 3.8 %ACh Max	2.51 µM	–	–
CC(C)n1nc(C(=O)N[C@H]2CCOC[C@@H]2O)cc1Cc1ccc(-c2cnn(C)c2)cc1 [17i]	–	–	–	–	Inactive (n = 3) Inactive (n = 3)	Inactive (n = 3) Inactive (n = 3)
